This note sets out measurements from patent US9005608B2, “Stabilized solubility-enhanced formulations for oral delivery” (Adds Pharmaceuticals LLC, priority 2009, dated 2015).

Converted amounts (≈) assume the structure as drawn.

The nature of data set [1]: CoQ10 solubility/concentration in non-aqueous formulations at elevated temperature. In kind it is physicochemical. Conditions: for solubility: organic solvent or mixture. An excerpt: While not intending to be bound to any theory, we posit that when a poorly water-soluble agent is incorporated into a porous carrier with narrow pores, it experiences strong geometric restrictions and large interfacial interactions with the porous matrix. […] Thus, absorbing a previously solubilized CoQ10 liquid formulation, for example, into the narrow pore channels of Fujicalin® (calcium hydrogen phosphate) inhibits re-crystallization and aggregation of CoQ10. This enables, to a large extent, even dispersion and distribution of pharmaceutically active forms of CoQ10 in solubilized form. After the Fujicalin® porous particulates dissolve in acidic gastric fluid, the SSS is released and the trapped SEF self-emulsifies in the fluid to form droplets of sufficiently small size, thereby facilitating absorption of CoQ10 cross the epithelial cells. Other porous particulates include silicon dioxide and magnesium aluminum metasilicate. Combinations may also be used.
CoQ10 in a concentration of >100 mg/ml in a non-aqueous formulation, preferably SEF, at a temperature above 25° C., preferably at or above 48° C. has been achieved.
The invention formulations solubilize CoQ10 at a concentration of >100 mg/ml at a temperature between 30° C. and 60° C., preferably not above 50° C. In addition, the nutrient/vitamin components readily dissolve in aqueous media, so that >75% of these components are released within an hour.

A short description of data set [2]: CoQ10 solubility at 37° C. in water and in placebo AQUA Q10 formulation. In kind it is physicochemical. Here is the method:
CoQ10 solubility was measured at 37° C. in water as well as in a placebo AQUA Q10 formulation, i.e., Incromega™ E3322, Capmul™ CMC C-8, and Cremophor™ EL at weight ratio of 40/25/20.

As to `COC1=C(OC)C(=O)C(C/C=C(\C)CC/C=C(\C)CC/C=C(\C)CC/C=C(\C)CC/C=C(\C)CC/C=C(\C)CC/C=C(\C)CC/C=C(\C)CC/C=C(\C)CCC=C(C)C)=C(C)C1=O` [CoQ10, Coenzyme Q10], the solubility in data set [1] (invention formulations, temperature between 30° C. and 60° C., preferably not above 50° C., read-out: CoQ10 concentration solubilized by the invention formulations) is more than 100 mg/mL; in data set [1] (non-aqueous formulations, elevated temperature close to its melting temperature (48° C.), read-out: solubility of CoQ10 in non-aqueous formulations), more than 100 mg/mL; in data set [2] (placebo AQUA Q10 formulation, oil or lipid, placebo Incromega E3322/Capmul CMC C-8/Cremophor EL 40/25/20, read-out: CoQ10 solubility in AQUA Q10 formulation), 177 mg/mL (≈ 205 mM); in data set [2] (water, read-out: CoQ10 solubility in water), 0.0004 mg/mL (≈ 0.000463 mM). The “CoQ10 concentration in a non-aqueous formulation” value in data set [1] (preferably SEF, temperature above 25° C., preferably at or above 48° C.) is more than 100 mg/mL. For the same molecule, the “CoQ10 solubility in AQUA Q10 formulation relative to solubility in water” value in data set [2] was “over 400,000 times”.
